Patent US10654833B2, “ASK1 isoindolin-1-one inhibitors and methods of use thereof” (Hepatikos Therapeutics, LLC, priority 2018, dated 2020)

Assays:
[1] = target: human OATP1B1 transporter (Homo sapiens (Human), UniProt Q9Y6L6); experiment: Transporter mediated cellular uptake, OATP1B1-expressing HEK293; assay type: in vitro ADME; settings: HEK293 stably expressing human OATP1B1, 37° C., 0.5 minutes
Procedure: (§1) Transporter Mediated Cellular Uptake
(§2) To determine transporter mediated cellular uptake of compounds, HEK293 stably expressing either human OATP1B1 or human OATP1B3 transporter, or mock transfected cells were cultured at 37° C. in an atmosphere of 95:5 air:CO2 DMEM/F12 medium containing 10% FBS, 100 unit/mL penicillin-G and 100 μg/mL streptomycin. Transporter expressing cell culture medium also contained 500 μg/mL G418 disulfate solution. Cells were plated onto 24-well poly-D-lysine coated culture plates at the density 5×10^5 cells/well 24 hours prior to uptake assay. Compound stock solutions were made at 1000× final concentration in 100% DMSO. Final compound solutions were prepared by diluting stock solutions into HBSS buffer (pH 7.4) On the day of the uptake assay cell culture media was removed and cells were washed twice with 300 μL of HBSS buffer (pH 7.4). Cellular uptake of compound into the cells was measured by adding 300 μL of final compound solutions in HBSS and incubating them at 37° C. for 0.5 minutes (OATP1B1) or 5 minutes (OATP1B3). Reactions were quenched by removing the buffer containing the TA and the cells were washed twice with 300 μL of HBSS buffer. Cells were lysed by adding 300 μL of MeOH:H2O (2:1) and incubated for 20 minutes at 4° C. The amount of compound in the cell lysate was determined by LC-MS/MS. The amount of protein in each well was quantified using the BCA kit for protein determination and used to normalize compound uptake (Sigma-Aldrich, St Louis, Mo., USA). • Uptake of the probe substrate in control cells provided background activity values for all data points. • Incubation with probe substrate (solvent only) provided 100% activity values. • A reference positive control was used for each transporter

[2] = target: human OATP1B3 transporter (Homo sapiens (Human), UniProt Q9NPD5); experiment: Transporter mediated cellular uptake, OATP1B3-expressing HEK293; assay type: in vitro ADME; settings: HEK293 stably expressing human OATP1B3, 37° C., 5 minutes
Procedure: as §1, §2

[3] = target: recombinant human ASK1 protein (Homo sapiens (Human), UniProt Q99683); experiment: ASK1 kinase activity inhibition assay (radiometric 33P incorporation into MBP); assay type: biochemical; settings: 20 μM MBP, 10 μM 33P-ATP
How it was run: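 Compound (1% DMSO final) was preincubated for 20 min at room temperature with recombinant human ASK1 and 20 μM MBP in HEPES pH 7.5 buffer. Reactions started with 10 μM 33P-ATP and ran for 2 h at room temperature. 33P incorporation into MBP was measured by P81 filter binding.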

[4] = target: ASK1 kinase active site (Homo sapiens (Human), UniProt Q99683); experiment: ASK1 kinase active site binding assay (KINOMEscan); settings: 11-point 3-fold dilution series
Procedure: ASK1 Kinase Active Site Binding Assay
Compound binding to the ASK1 kinase active site was determined using the KINOMEscan Assay platform (DiscoverX, San Diego, Calif.). Briefly, ASK1-tagged T7 phage strains were prepared in an E. coli host derived from the BL21 strain. E. coli were grown to log-phase and infected with T7 phage and incubated with shaking at 32° C. until lysis. The lysates were centrifuged and filtered to remove cell debris. The remaining kinases were produced in HEK-293 cells and subsequently tagged with DNA for qPCR detection. Streptavidin-coated magnetic beads were treated with biotinylated small molecule ligands for 30 minutes at room temperature to generate affinity resins for kinase assays. The liganded beads were blocked with excess biotin and washed with blocking buffer (SeaBlock (Pierce), 1% BSA, 0.05% Tween 20, 1 mM DTT) to remove unbound ligand and to reduce nonspecific binding. Binding reactions were assembled by combining kinases, liganded affinity beads, and test compounds in 1× binding buffer (20% SeaBlock, 0.17×PBS, 0.05% Tween 20, 6 mM DTT). Test compounds were prepared as 111× stocks in 100% DMSO. Kds were determined using an 11-point 3-fold compound dilution series with three DMSO control points. […] The kinase concentration in the eluates was measured by qPCR. Binding constants (Kds) were calculated with a standard dose-response curve using the Hill equation. […]

human OATP1B3 transporter, sequence (Q9NPD5 whole entry): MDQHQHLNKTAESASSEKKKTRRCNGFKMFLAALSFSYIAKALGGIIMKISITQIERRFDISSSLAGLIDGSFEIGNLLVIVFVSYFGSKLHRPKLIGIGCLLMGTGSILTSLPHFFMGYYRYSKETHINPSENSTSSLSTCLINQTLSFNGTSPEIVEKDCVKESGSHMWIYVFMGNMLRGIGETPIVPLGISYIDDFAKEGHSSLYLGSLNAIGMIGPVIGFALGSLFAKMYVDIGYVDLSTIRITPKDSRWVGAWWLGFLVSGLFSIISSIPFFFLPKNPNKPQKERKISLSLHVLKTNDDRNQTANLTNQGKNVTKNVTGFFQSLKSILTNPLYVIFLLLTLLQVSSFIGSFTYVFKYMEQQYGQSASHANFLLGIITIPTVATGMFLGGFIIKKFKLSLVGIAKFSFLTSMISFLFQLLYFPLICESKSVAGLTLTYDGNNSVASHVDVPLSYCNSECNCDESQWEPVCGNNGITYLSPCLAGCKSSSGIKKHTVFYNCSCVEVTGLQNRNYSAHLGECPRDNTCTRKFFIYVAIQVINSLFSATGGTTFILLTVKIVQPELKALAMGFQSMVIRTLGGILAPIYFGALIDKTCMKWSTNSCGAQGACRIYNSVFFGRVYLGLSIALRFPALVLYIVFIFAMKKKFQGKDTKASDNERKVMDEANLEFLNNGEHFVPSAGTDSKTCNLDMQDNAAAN
human OATP1B1 transporter, sequence (Q9Y6L6 whole entry): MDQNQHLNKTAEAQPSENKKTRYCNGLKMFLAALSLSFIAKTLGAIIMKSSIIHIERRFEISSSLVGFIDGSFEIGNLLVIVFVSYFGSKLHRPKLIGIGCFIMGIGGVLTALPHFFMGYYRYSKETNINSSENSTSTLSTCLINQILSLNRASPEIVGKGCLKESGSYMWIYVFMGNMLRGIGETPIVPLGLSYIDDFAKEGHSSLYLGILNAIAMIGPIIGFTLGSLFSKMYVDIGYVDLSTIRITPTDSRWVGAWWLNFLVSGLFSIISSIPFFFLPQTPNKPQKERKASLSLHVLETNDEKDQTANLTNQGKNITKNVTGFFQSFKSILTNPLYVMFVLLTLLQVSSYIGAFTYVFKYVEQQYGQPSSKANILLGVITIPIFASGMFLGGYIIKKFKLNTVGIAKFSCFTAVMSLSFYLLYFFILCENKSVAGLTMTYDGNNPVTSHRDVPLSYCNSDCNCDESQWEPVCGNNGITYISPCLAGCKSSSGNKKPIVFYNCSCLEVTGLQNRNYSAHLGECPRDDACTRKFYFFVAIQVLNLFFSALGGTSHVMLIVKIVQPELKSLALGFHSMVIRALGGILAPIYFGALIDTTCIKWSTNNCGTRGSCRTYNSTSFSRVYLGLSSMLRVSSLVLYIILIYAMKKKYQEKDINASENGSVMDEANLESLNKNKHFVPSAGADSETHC
recombinant human ASK1 protein, sequence (Q99683 whole entry): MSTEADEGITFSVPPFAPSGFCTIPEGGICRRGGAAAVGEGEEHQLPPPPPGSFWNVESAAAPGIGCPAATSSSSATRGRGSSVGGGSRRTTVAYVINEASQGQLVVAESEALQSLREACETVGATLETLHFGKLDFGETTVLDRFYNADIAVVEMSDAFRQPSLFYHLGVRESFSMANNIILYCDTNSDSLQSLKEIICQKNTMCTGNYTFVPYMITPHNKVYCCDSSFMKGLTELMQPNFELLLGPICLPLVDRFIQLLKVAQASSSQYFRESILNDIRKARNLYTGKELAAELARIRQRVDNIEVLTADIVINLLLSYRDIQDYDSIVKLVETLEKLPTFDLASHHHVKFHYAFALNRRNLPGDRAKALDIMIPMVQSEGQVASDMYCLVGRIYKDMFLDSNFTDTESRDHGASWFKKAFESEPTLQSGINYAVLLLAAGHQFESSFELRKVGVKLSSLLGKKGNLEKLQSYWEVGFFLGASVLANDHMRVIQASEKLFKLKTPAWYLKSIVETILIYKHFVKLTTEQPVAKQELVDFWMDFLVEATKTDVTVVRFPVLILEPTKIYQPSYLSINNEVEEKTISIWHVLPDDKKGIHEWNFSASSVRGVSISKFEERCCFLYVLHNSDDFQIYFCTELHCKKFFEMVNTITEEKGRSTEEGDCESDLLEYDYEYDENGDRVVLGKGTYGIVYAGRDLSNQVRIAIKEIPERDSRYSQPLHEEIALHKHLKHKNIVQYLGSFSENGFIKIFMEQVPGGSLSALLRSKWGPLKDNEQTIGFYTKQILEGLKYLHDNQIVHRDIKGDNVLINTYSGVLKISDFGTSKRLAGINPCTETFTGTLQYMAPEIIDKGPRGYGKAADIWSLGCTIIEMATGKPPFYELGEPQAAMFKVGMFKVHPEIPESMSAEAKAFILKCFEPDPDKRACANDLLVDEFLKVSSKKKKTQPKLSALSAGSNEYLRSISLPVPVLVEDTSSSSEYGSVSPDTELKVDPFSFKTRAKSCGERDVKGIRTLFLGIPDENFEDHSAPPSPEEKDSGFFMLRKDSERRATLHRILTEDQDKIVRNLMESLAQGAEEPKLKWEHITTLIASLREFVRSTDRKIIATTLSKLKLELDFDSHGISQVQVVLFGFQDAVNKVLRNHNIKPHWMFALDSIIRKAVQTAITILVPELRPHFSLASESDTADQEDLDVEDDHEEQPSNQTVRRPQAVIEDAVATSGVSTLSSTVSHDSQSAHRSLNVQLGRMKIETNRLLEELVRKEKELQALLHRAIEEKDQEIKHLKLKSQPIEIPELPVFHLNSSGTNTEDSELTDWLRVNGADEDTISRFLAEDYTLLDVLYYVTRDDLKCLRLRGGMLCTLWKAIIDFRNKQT
ASK1 kinase active site, sequence (Q99683 whole entry): as above

| SMILES | OATP1B1 Uptake (Percent of no transporter control cell) [1] [%] | OATP1B3 Uptake (Percent of no transporter control cell) [2] [%] | IC50 ([3]; Table 3) [nM] | IC50 ([3]; Table 2) [nM] | Kd [4] [nM] |
| --- | --- | --- | --- | --- | --- |
| C[C@]12CC[C@@H]3c4ccc(OS(=O)(=O)O)cc4CC[C@H]3[C@@H]1CCC2=O [Estrone 3-sulphate, reference compound] | 685 | – | – | – | – |
| CC(C)n1cnnc1-c1cccc(N2Cc3ccc(-c4cccc(C(C)(C)C(=O)O)c4)cc3C2=O)n1 [Compound 102, 2-(3-(2-(6-(4-Isopropyl-4H-1,2,4-triazol-3-yl)pyridin-2-yl)-3-oxoisoindolin-5-yl)phenyl)-2-methylpropanoic Acid] | 221 | 632 | 0.7 | – | – |
| CC(C)n1cnnc1-c1cccc(N2Cc3ccc(-c4ccc(C(C)(C)C(=O)O)cc4)cc3C2=O)n1 [Compound 39, 2-(4-(2-(6-(4-isopropyl-4H-1,2,4-triazol-3-yl)pyridin-2-yl)-3-oxoisoindolin-5-yl)phenyl)-2-methylpropanoic acid] | 175 | 316 | – | 3.3 | 0.86 |
| C[C@]12CC[C@@H]3c4ccc(O)cc4CC[C@H]3[C@@H]1CC[C@@H]2O [Estradiol, reference compound] | – | 490 | – | – | – |
| CC(C)n1cnnc1-c1cccc(N2Cc3ccc(-c4cccc(C(=O)O)c4)cc3C2=O)n1 [Compound 1, 3-(2-(6-(4-isopropyl-4H-1,2,4-triazol-3-yl)pyridin-2-yl)-3-oxoisoindolin-5-yl)benzoic acid] | 753 | 399 | 5.2 | 5.2 | 0.75 |
| CC(C)n1cnnc1-c1cccc(N2Cc3ccc(-c4ccc(C5(C(=O)O)CC5)cc4)cc3C2=O)n1 [Compound 86, 1-(4-(2-(6-(4-Isopropyl-4H-1,2,4-triazol-3-yl)pyridin-2-yl)-3-oxoisoindolin-5-yl)phenyl)cyclopropane-1-carboxylic Acid] | – | – | 1.83 | – | – |
